Experimental data: ChEMBL document CHEMBL4765241, “Identification and Preclinical Pharmacology of ((1 R,3 S)-1-Amino-3-(( S)-6-(2-methoxyphenethyl)-5,6,7,8-tetrahydronaphthalen-2-yl)cyclopentyl)methanol (BMS-986166): A Differentiated Sphingosine-1-phosphate Receptor 1 (S1P) Modulator Advanced into Clinical Trials” (J Med Chem, 2019)
Calls of active or inactive are those of the source. The calls are words filed in the database; no cut-off is given here.

Experiments:
[1] = AUC ratio in orally dosed cynomolgus monkey blood assessed as phosphate metabolite to parent compound; format: ADME, organism-based, Macaca fascicularis; conditions: in vivo, po
[2] = Terminal half-life in Sprague-Dawley rat at 1 mg/kg, iv; format: ADME, organism-based; conditions: in vivo, read-out: beta t1/2 (converted)
Cytochrome P450 2C9 = Cytochrome P450 2C9 (Homo sapiens, UniProt P11712); assay: Inhibition of CYP2C9 (unknown origin); format: ADME
Chain of Cytochrome P450 2C9 (P11712 whole entry): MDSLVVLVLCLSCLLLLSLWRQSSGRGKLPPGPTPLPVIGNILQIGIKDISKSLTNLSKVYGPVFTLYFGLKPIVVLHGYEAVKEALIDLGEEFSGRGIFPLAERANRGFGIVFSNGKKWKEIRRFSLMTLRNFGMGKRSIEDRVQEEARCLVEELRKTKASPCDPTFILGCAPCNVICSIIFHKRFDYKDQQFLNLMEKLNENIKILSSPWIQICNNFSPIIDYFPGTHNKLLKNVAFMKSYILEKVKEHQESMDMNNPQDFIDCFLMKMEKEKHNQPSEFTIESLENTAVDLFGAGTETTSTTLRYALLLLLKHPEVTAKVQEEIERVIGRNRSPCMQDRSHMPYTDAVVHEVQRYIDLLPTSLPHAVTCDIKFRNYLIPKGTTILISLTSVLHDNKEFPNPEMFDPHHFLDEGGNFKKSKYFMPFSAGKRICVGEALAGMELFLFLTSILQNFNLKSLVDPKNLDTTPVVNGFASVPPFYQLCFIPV

[3] = Dissociation constant, pKa of compound; format: physicochemical
[4] = Drug metabolism in Lewis rat blood assessed as concentration of parent compound at 2 mg/kg, po measured at 4 hrs by LC-MS/MS analysis; format: ADME, organism-based; conditions: read-out: Ct
Cytochrome P450 3A4 = Cytochrome P450 3A4 (Homo sapiens, UniProt P08684); assay: Inhibition of CYP3A4 (unknown origin); format: ADME
Chain of Cytochrome P450 3A4 (P08684 whole entry): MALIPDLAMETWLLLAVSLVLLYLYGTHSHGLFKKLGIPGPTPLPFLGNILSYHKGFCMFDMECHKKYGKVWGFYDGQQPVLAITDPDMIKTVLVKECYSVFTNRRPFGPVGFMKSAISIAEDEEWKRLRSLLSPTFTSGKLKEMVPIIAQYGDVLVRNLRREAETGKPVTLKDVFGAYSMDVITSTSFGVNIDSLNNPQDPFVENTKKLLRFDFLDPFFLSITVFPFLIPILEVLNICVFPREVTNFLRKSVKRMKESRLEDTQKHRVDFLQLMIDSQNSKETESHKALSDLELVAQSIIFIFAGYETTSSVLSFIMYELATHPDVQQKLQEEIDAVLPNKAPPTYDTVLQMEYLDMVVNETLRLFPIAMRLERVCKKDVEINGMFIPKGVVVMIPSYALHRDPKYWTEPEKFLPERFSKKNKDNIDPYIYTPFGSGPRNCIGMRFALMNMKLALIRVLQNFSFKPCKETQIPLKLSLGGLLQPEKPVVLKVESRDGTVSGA

[5] = Oral bioavailability in cynomolgus monkey at 1 mg/kg; format: ADME, organism-based, Macaca fascicularis; conditions: in vivo
[6] = Drug metabolism in Lewis rat blood assessed as concentration of parent compound at 2 mg/kg, po measured at 24 hrs by LC-MS/MS analysis; format: ADME, organism-based; conditions: read-out: Ct
Cytochrome P450 2B6 = molecular target: T1, Cytochrome P450 2B6 (Homo sapiens, UniProt P20813); assay: Inhibition of CYP2B6 (unknown origin); format: ADME
T1 sequence (P20813 whole entry): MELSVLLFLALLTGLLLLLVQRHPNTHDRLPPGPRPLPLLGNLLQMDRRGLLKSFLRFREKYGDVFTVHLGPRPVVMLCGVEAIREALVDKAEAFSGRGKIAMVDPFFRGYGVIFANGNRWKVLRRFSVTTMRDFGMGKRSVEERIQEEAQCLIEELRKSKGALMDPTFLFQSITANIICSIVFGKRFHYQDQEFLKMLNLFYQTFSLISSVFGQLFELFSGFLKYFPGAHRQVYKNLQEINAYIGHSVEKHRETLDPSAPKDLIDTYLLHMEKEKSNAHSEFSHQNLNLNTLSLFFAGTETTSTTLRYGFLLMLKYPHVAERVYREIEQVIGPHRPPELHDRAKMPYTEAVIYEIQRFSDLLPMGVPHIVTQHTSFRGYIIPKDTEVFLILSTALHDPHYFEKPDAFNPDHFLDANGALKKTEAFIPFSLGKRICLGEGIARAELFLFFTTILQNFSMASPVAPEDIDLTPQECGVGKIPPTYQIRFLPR

Mus musculus [7] = assay: Immunosuppressive activity in MOG (35 to 55 residues)/pertussis toxin-induced experimental autoimmune encephalomyelitis C57BL/6 mouse model assessed as maximum efficacy causing reduction in EAE spinal cord clinical score administered orally once daily starting from day 1 post immunization and measured thrice weekly until day 24; format: functional
[8] = AUC ratio in orally dosed Beagle dog blood assessed as phosphate metabolite to parent compound; format: ADME, organism-based, Canis lupus familiaris; conditions: in vivo, po
[9] = Clearance in cynomolgus monkey at 1 mg/kg, iv; format: ADME, organism-based, Macaca fascicularis; conditions: in vivo
Mus musculus [10] = assay: Immunosuppressive activity in MOG (35 to 55 residues)/pertussis toxin-induced experimental autoimmune encephalomyelitis C57BL/6 mouse model assessed as reduction in EAE clinical scores at 0.1 to 0.5 mg/kg, po QD starting from day 1 post immunization and observed at day 12 until day 24 relative to control; format: functional, organism-based; conditions: dose 0.1-0.5 mg/kg
Cytochrome P450 2C19 = Cytochrome P450 2C19 (Homo sapiens, UniProt P33261); assay: Inhibition of CYP2C19 (unknown origin); format: ADME
Chain of Cytochrome P450 2C19 (P33261 whole entry): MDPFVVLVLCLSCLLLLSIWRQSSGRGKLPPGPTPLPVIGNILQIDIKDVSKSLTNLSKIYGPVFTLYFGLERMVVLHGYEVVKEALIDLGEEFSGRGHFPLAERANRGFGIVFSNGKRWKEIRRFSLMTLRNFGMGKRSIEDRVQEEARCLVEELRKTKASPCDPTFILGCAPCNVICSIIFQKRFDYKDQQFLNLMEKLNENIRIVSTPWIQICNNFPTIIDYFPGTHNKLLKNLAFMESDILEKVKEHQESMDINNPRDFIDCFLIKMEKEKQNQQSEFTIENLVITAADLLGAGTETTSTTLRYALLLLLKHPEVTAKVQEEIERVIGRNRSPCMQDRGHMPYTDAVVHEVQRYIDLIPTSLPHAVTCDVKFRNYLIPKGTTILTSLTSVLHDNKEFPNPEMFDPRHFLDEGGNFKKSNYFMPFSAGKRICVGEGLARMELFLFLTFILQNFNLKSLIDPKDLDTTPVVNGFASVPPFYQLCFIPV

Mus musculus [11] = assay: Antiarthritic activity in DBA/1 mouse model of collagen-induced arthritis assessed as reduction in paw histological score administered orally once daily as single dose for 21 days; format: functional, organism-based; conditions: time 21.0 day
Cytochrome P450 2D6 = Cytochrome P450 2D6 (Homo sapiens, UniProt P10635); assay: Inhibition of CYP2D6 (unknown origin); format: ADME
Chain of Cytochrome P450 2D6 (P10635 whole entry): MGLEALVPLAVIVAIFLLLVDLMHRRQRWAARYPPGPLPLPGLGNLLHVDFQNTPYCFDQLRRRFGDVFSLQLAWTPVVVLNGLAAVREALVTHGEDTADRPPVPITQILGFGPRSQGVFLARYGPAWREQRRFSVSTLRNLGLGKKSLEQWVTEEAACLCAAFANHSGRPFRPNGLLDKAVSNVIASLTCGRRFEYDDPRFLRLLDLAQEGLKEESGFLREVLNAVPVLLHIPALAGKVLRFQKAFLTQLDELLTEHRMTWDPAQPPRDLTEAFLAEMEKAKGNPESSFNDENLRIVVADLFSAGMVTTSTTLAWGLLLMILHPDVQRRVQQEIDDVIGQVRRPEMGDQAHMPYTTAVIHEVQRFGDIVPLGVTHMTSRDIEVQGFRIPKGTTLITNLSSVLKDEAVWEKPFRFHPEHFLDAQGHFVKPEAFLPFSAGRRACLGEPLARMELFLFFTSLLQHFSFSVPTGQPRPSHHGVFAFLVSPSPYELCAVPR

[12] = Genotoxicity in bacteria by Ames test; format: toxicity
[13] = Pulmonary toxicity in Lewis rat assessed as elevation of BAL protein level at 10 mg/kg by advia1800 chemistry analyzer; format: organism-based; conditions: in vivo
[14] = AUC ratio in orally dosed Sprague-Dawley rat blood assessed as phosphate metabolite to parent compound; format: ADME, organism-based; conditions: in vivo, po
[15] = Protein binding in rat assessed as bound fraction; format: ADME; conditions: read-out: PB
Mus musculus [16] = assay: Antiarthritic activity in DBA/1 mouse model of collagen-induced arthritis assessed as maximum efficacy causing reduction in paw histological score administered orally once daily as single dose for 21 days; format: functional; conditions: time 21 day
[17] = Oral bioavailability in Sprague-Dawley rat at 1 mg/kg; format: ADME, organism-based; conditions: in vivo
Mus musculus [18] = assay: Antiarthritic activity in DBA/1 mouse model of collagen-induced arthritis assessed as reduction in paw histological score at 0.5 mg/kg, po QD administered as single dose for 21 days; format: functional; set-up: scale not given: the % may be the effect or the level left; conditions: time 21 day
[19] = Half-life in Lewis rat at 2 mg/kg, po measured over 72 hrs by LC-MS/MS analysis; format: ADME, organism-based; conditions: in vivo
[20] = Volume of distribution at steady state in cynomolgus monkey at 1 mg/kg, po or 1 mg/kg, iv; format: ADME, organism-based, Macaca fascicularis; conditions: in vivo, read-out: Vdss
Mus musculus [21] = assay: Immunosuppressive activity in MOG (35 to 55 residues)/pertussis toxin-induced experimental autoimmune encephalomyelitis C57BL/6 mouse model assessed as reduction in formation of inflammatory lesions in CNS administered orally once daily starting from day 1 post immunization and measured thrice weekly until day 24; format: functional, organism-based; conditions: dose 0.1-0.5 mg/kg
[22] = Tmax in Beagle dog at 0.3 mg/kg, po or 1 mg/kg, iv; format: ADME, organism-based, Canis lupus familiaris; conditions: in vivo
Mus musculus [23] = assay: Antiarthritic activity in DBA/1 mouse model of collagen-induced arthritis assessed as reduction in paw histological score at 0.1 mg/kg, po QD administered as single dose for 21 days; format: functional; set-up: scale not given: the % may be the effect or the level left; conditions: time 21 day
[24] = Protein binding in mouse assessed as bound fraction; format: ADME; conditions: read-out: PB
[25] = Metabolic stability in human liver microsomes assessed as half-life measured upto 120 mins in presence of NADPH-generating system by LC/MS/MS analysis; format: ADME, Microsome
[26] = Distribution coefficient, log D of compound at pH 6.5; format: physicochemical; conditions: octanol/water
Mus musculus [27] = assay: Immunosuppressive activity in MOG (35 to 55 residues)/pertussis toxin-induced experimental autoimmune encephalomyelitis C57BL/6 mouse model assessed as maximum efficacy causing reduction in EAE clinical score administered orally once daily starting from day 1 post immunization and measured thrice weekly until day 24; format: functional
[28] = Terminal half-life in cynomolgus monkey at 1 mg/kg, iv; format: ADME, organism-based, Macaca fascicularis; conditions: in vivo, read-out: beta t1/2 (converted)
[29] = Volume of distribution at steady state in Beagle dog at 0.3 mg/kg, po or 1 mg/kg, iv; format: ADME, organism-based, Canis lupus familiaris; conditions: in vivo, read-out: Vdss
[30] = Terminal half-life in beagle dog at 1 mg/kg, iv; format: ADME, organism-based, Canis lupus familiaris; conditions: in vivo, read-out: beta t1/2 (converted)
[31] = Tmax in Sprague-Dawley rat at 1 mg/kg, po or 1 mg/kg, iv; format: ADME, organism-based; conditions: in vivo
Rattus norvegicus = assay: Drug metabolism in Lewis rat blood assessed as concentration of phosphate ester metabolite formation at 2 mg/kg, po measured at 4 hrs by LC-MS/MS analysis; conditions: in vivo
[32] = Clearance in Beagle dog at 1 mg/kg, iv; format: ADME, organism-based, Canis lupus familiaris; conditions: in vivo
[33] = Clearance in Sprague-Dawley rat at 1 mg/kg, iv; format: ADME, organism-based; conditions: in vivo
Mus musculus [34] = assay: Antiarthritic activity in DBA/1 mouse model of collagen-induced arthritis assessed as reduction in clinical score administered orally once daily as single dose for 21 days; format: functional, organism-based; conditions: time 21.0 day

**Q.** For `COc1ccccc1CC[C@@H]1CCc2cc([C@H]3CC[C@](N)(CO)C3)ccc2C1` [UDIFITIMOD], which “Ratio AUC” value [1] is on record?
**A.** 1

**Q.** And the half-life [2]?
**A.** 38 h

**Q.** And the IC50 (Cytochrome P450 2C9)?
**A.** 14 µM

**Q.** And the pKa [3]?
**A.** 9.5

**Q.** What about the concentration at 4 h [4] of the same molecule?
**A.** 40 nM

**Q.** What about the IC50 (Cytochrome P450 3A4) of the same molecule?
**A.** 5.5 µM

**Q.** And the bioavailability [5]?
**A.** 76%

**Q.** And the concentration at 24 h [6]?
**A.** 30 nM

**Q.** And the IC50 (Cytochrome P450 2B6)?
**A.** 17 µM

**Q.** What about the Emax (Mus musculus [7]) of the same molecule?
**A.** 0.5 mg/kg/day

**Q.** And the “Ratio AUC” value [8]?
**A.** 3.1

**Q.** What about the clearance [9] of the same molecule?
**A.** 3.8 mL/min/kg

**Q.** What about the Activity (Mus musculus [10]) of the same molecule?
**A.** Active

**Q.** What about the IC50 (Cytochrome P450 2C19) of the same molecule?
**A.** 6.9 µM

**Q.** What about the Activity (Mus musculus [11]) of the same molecule?
**A.** Active

**Q.** What about the IC50 (Cytochrome P450 2D6) of the same molecule?
**A.** 18 µM

**Q.** What about the Activity [12] of the same molecule?
**A.** Non-Toxic

**Q.** What about the Activity [13] of the same molecule?
**A.** 14 mg/dL

**Q.** And the “Ratio AUC” value [14]?
**A.** 5.2

**Q.** And the fraction unbound [15]?
**A.** < 0.001

**Q.** And the Emax (Mus musculus [16])?
**A.** 0.5 mg/kg/day

**Q.** What about the bioavailability [17] of the same molecule?
**A.** 23%

**Q.** What about the Activity (Mus musculus [18]) of the same molecule?
**A.** 92%

**Q.** And the half-life [19]?
**A.** 27 h

**Q.** What about the Vd [20] of the same molecule?
**A.** 10 L/kg

**Q.** What about the Activity (Mus musculus [21]) of the same molecule?
**A.** Dose-dependent effect

**Q.** And the Tmax [22]?
**A.** 6 h

**Q.** And the Activity (Mus musculus [23])?
**A.** 41%

**Q.** What about the fraction unbound [24] of the same molecule?
**A.** < 0.001

**Q.** And the half-life [25]?
**A.** 4.03 h

**Q.** And the logD [26]?
**A.** 5.05

**Q.** What about the Emax (Mus musculus [27]) of the same molecule?
**A.** 0.5 mg/kg/day

**Q.** What about the half-life [28] of the same molecule?
**A.** 46 h

**Q.** And the Vd [29]?
**A.** 21 L/kg

**Q.** What about the half-life [30] of the same molecule?
**A.** 165 h

**Q.** What about the Tmax [31] of the same molecule?
**A.** 6 h

**Q.** What about the Drug metabolism (Rattus norvegicus) of the same molecule?
**A.** 180 nM

**Q.** And the clearance [32]?
**A.** 1.9 mL/min/kg

**Q.** What about the clearance [33] of the same molecule?
**A.** 9.7 mL/min/kg

**Q.** What about the Activity (Mus musculus [34]) of the same molecule?
**A.** Active
